ChEMBL document CHEMBL1137043, “Development of a polyvalent assay system for lead identification” (Bioorg Med Chem Lett, 2004)
*1 amine or outer side, *2 acyl side, *3 side chain or, on linkers, in order; H or OH if unused. Where a SMILES comes first, the peptide text is derived from it. [ ]: non-standard residue; d: D form. X1 = O=C(O)COc1ccc(C[C@H](N[*:1])C(=O)[*:2])cc1C(=O)O

target: T1, Tyrosine-protein phosphatase non-receptor type 1 (Homo sapiens, UniProt P18031); experiment: In vitro inhibitory concentration against Protein-tyrosine phosphatase 1B hydrolysis of p-nitrophenol phosphate
T1 sequence (P18031 whole entry): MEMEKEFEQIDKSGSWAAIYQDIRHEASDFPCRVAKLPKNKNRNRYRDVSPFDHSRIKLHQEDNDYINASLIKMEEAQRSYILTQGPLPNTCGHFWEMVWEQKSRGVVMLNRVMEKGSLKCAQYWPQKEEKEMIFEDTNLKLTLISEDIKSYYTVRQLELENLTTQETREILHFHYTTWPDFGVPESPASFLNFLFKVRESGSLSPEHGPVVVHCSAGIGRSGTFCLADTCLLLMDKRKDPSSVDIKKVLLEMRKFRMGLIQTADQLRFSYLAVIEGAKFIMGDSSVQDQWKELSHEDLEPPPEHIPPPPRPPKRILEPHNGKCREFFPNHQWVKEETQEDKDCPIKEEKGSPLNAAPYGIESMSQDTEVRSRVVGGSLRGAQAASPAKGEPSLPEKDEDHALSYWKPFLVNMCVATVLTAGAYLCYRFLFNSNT

Ki [µM]	Compound
41	CCC(C)[C@H](NC(=O)C(Cc1ccc(OCC(=O)O)c(C(=O)O)c1)NC(=O)[C@H](CC(=O)O)NC(C)=O)C(N)=O (stereo partly drawn)
11	CC[C@@H](C)[C@H](NC(=O)C(Cc1ccc(OCC(=O)O)c(C(=O)O)c1)NC(=O)[C@H](CC(=O)O)NC(C)=O)C(=O)N[C@@H](CCCN=C(N)N)C(N)=O (stereo partly drawn)
18	CC[C@H](C)[C@H](NC(=O)[C@H](Cc1ccc(OCC(=O)O)c(C(=O)O)c1)NC(=O)[C@H](CC(=O)O)NC(C)=O)C(=O)N[C@@H](CCCN=C(N)N)C(=O)NCC(=O)NCC(=O)NCC(N)=O (Ac-D[X1]IRGGG-NH2)
